Legend:
Experiment in all cases: relative viability (nuclei count vs DMSO), 5 days (fraction); higher = more cells survive
[1] = compound: CC1(C)CCC(CN2CCN(c3ccc(C(=O)NS(=O)(=O)c4ccc(NCC5CCOCC5)c([N+](=O)[O-])c4)c(Oc4cnc5[nH]ccc5c4)c3)CC2)=C(c2ccc(Cl)cc2)C1 [Venetoclax] + Cc1nc(Nc2ncc(C(=O)Nc3c(C)cccc3Cl)s2)cc(N2CCN(CCO)CC2)n1 [Dasatinib] (partner 0.075 µM)
Summary of the method: (§1)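 Nuclei were stained with Hoechst during a one-step fixation (final 0.05% Triton X-100, 1% formaldehyde, 1 ug/ml Hoechst) carried out 5 days after dosing, then counted on 4× images. The cells, lung cancer lines in 1536-well plates, had been dosed by pin tool the day after seeding with one drug alone or a fixed anchor-drug dose plus five library-drug doses (not always all listed) in √10 steps. Relative viability is the nuclei count in treated wells divided by that in vehicle wells, and each value is the median of duplicate plates.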

[2] = compound: CC1(C)CCC(CN2CCN(c3ccc(C(=O)NS(=O)(=O)c4ccc(NCC5CCOCC5)c([N+](=O)[O-])c4)c(Oc4cnc5[nH]ccc5c4)c3)CC2)=C(c2ccc(Cl)cc2)C1 [Venetoclax] + O=C(c1cc(Cc2n[nH]c(=O)c3ccccc23)ccc1F)N1CCN(C(=O)C2CC2)CC1 [Olaparib] (partner 8 µM)
Summary of the method: as §1

[3] = compound: Cn1cnc2c(F)c(Nc3ccc(Br)cc3Cl)c(C(=O)NOCCO)cc21 [Selumetinib] + CS(=O)(=O)N1CCN(Cc2cc3nc(-c4cccc5[nH]ncc45)nc(N4CCOCC4)c3s2)CC1 [Pictilisib] (partner 1 µM)
Summary of the method: as §1

[4] = compound: Cn1cnc2c(F)c(Nc3ccc(Br)cc3Cl)c(C(=O)NOCCO)cc21 [Selumetinib] + O=C(c1cc(Cc2n[nH]c(=O)c3ccccc23)ccc1F)N1CCN(C(=O)C2CC2)CC1 [Olaparib] (partner 8 µM)
Summary of the method: as §1

## UMC-11
[1]; first compound 0.01 µM
  relative viability: 0.45
[1]; first compound 0.03162 µM
  relative viability: 0.518
[1]; first compound 0.1 µM
  relative viability: 0.463
[1]; first compound 0.3162 µM
  relative viability: 0.505
[1]; first compound 1 µM
  relative viability: 0.491
[2]; first compound 0.01 µM
  relative viability: 0.401
[2]; first compound 0.03162 µM
  relative viability: 0.322
[2]; first compound 0.1 µM
  relative viability: 0.303
[2]; first compound 0.3162 µM
  relative viability: 0.379
[2]; first compound 1 µM
  relative viability: 0.886
[3]; first compound 0.02 µM
  relative viability: 0.827
[3]; first compound 0.06325 µM
  relative viability: 0.772
[3]; first compound 0.2 µM
  relative viability: 0.869
[3]; first compound 0.6325 µM
  relative viability: 0.922
[4]; first compound 0.02 µM
  relative viability: 0.32
[4]; first compound 0.06325 µM
  relative viability: 0.33
[4]; first compound 0.2 µM
  relative viability: 0.384
[4]; first compound 0.6325 µM
  relative viability: 0.914
